For 23 compounds, AC50 cell viability and efficacy results are on record in the supplement of paper PMC10290057.

Where a name gives a salt, the structure may show the parent alone.

Assay [1] relates to HCT116. Briefly: AC50 cell viability (CellTiter-Glo); higher = less potent. As to conditions: 48 h. For orientation: ATP-based viability assays read luminescence as a measure of living cells.
In assay [2] the test system is HCT116. Briefly: efficacy (fitted maximal change in viability relative to DMSO control); higher = less cytotoxic (negative = loss of viability). The following applies: 48 h.
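For AC50 cell viability (CellTiter-Glo) in this document: HCT116 colorectal carcinoma cells screened at five concentrations per compound, luminescent viability scaled between DMSO wells and empty wells on each plate, curves fitted per compound.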
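For efficacy (fitted maximal change in viability relative to DMSO control) in this document: Luminescence-based viability readout, five doses per compound, normalized against on-plate DMSO and empty-well controls, followed by dose-response curve fitting for every drug.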

Regarding `CS[C@H]1SC[C@@H]2C(=O)N(C)[C@H](C(C)C)C(=O)OC[C@H](NC(=O)c3cnc4ccccc4n3)C(=O)N[C@H](C)C(=O)N(C)[C@H]1C(=O)N(C)[C@H](C(C)C)C(=O)OC[C@H](NC(=O)c1cnc3ccccc3n1)C(=O)N[C@H](C)C(=O)N2C` [Echinomycin], the AC50 cell viability in the assay on HCT116 [1] stood at 0.00372 µM. In the assay on HCT116 [2], the efficacy is -72.6%.

In the assay with HCT116 [1], `Clc1ccc(COC(Cn2ccnc2)c2ccc(Cl)cc2Cl)cc1` (stereo unspecified) [Econazole nitrate] returned an AC50 cell viability of 20.9 µM. In addition, the efficacy with HCT116 [2] was -83.5%.

`CC1(C)C(N(O)C(=O)Nc2ccc(Cl)cc2)N(c2ccc(Cl)cc2)C(=O)N1CC(=O)N/N=C/C=C/c1ccc([N+](=O)[O-])o1` (stereo unspecified) [Eeyarestatin I] registered an AC50 cell viability in the assay with HCT116 [1] of 8.33 µM. For the same compound, the efficacy in the assay on HCT116 [2] is -89.8%.

As to `O=C1Nc2ccc(Cl)cc2[C@@](C#CC2CC2)(C(F)(F)F)O1` [Efavirenz], the AC50 cell viability with HCT116 [1] came to 26.3 µM. Besides, in the assay on HCT116 [2], the efficacy was -97.1%.

In the assay on HCT116 [1], `CCNCCc1ccc(CN(CC)c2cc(OC)ccc2[C@@H]2CCc3cc(O)ccc3C2)cc1` [Elacestrant] returned an AC50 cell viability of 7.42 µM. Also, the efficacy with HCT116 [2] was -96.5%.

As to `CSc1ccc(C(=O)/C=C/c2cc(C)c(OC(C)(C)C(=O)O)c(C)c2)cc1` [Elafibranor], the AC50 cell viability in the assay on HCT116 [1] was determined as 30.3 µM. The efficacy with HCT116 [2] was -75.5%.

Compound `NC(=O)/C(=C/n1cnc(-c2cc(C(F)(F)F)cc(C(F)(F)F)c2)n1)c1cncnc1` [Eltanexor] returned an AC50 cell viability in the assay on HCT116 [1] of 0.295 µM. In the assay on HCT116 [2], the efficacy was -78.9%.

Regarding `CC[C@H]1CN2CCc3cc(OC)c(OC)cc3[C@@H]2C[C@@H]1C[C@H]1NCCc2cc(OC)c(OC)cc21` [Emetine], in the assay with HCT116 [1], the AC50 cell viability was found to be 0.0833 µM. The efficacy with HCT116 [2] was -73.6%.

`C[C@H](NC(=O)C(=O)Nc1ccccc1C(C)(C)C)C(=O)N[C@@H](CC(=O)O)C(=O)COc1c(F)c(F)cc(F)c1F` [Emricasan] gave an AC50 cell viability with HCT116 [1] of 13.2 µM. Moreover, the efficacy in the assay with HCT116 [2] was -89.4%.

As for `CC(C)(O)CNc1nc(Nc2ccnc(C(F)(F)F)c2)nc(-c2cccc(C(F)(F)F)n2)n1` [Enasidenib], the AC50 cell viability in the assay on HCT116 [1] worked out at 18.6 µM. In addition, the efficacy in the assay on HCT116 [2] is -71.3%.

The compound `COC(=O)N[C@@H](C)CNc1nccc(-c2cn(C(C)C)nc2-c2cc(Cl)cc(N[S+](C)(=O)[O-])c2F)n1` [Encorafenib] had an AC50 cell viability with HCT116 [1] of 4.17 µM. In the assay on HCT116 [2], the efficacy was -52.7%.

With `Nc1ccccc1NC(=O)c1ccc(CNC(=O)OCc2cccnc2)cc1` [Entinostat], in the assay on HCT116 [1], the AC50 cell viability came to 2.95 µM. The efficacy in the assay on HCT116 [2] was -83.4%.

The compound `c1cn2cc(-c3ccc4cn[nH]c4c3)nc(Nc3ccc(N4CCOCC4)cc3)c2n1` [Entospletinib] had an AC50 cell viability with HCT116 [1] of 5.9 µM. In addition, in the assay on HCT116 [2], the efficacy is -34.9%.

In the assay on HCT116 [1], `CN1CCN(c2ccc(C(=O)Nc3n[nH]c4ccc(Cc5cc(F)cc(F)c5)cc34)c(NC3CCOCC3)c2)CC1` [Entrectinib] yielded an AC50 cell viability of 5.25 µM. Further, the efficacy with HCT116 [2] is -101%.

Consider `C[N]1C=C(C2=CC=CC=C12)\C3=C(\C(=O)NC3=O)C4=C[N](C5CCN(CC5)CC6=NC=CC=C6)C7=C4C=CC=C7` [Enzastaurin], for which the AC50 cell viability in the assay on HCT116 [1] was found to be 14.8 µM. Moreover, the efficacy in the assay with HCT116 [2] was -56.4%.

Regarding `Nc1nc(N)c2nc(-c3cccc(Cl)c3)c(N)nc2n1` [Epiblastin A], the AC50 cell viability in the assay on HCT116 [1] stood at 1.66 µM. For the same compound, the efficacy in the assay with HCT116 [2] was -85%.

As for `COc1cccc2c1C(=O)c1c(O)c3c(c(O)c1C2=O)C[C@@](O)(C(=O)CO)C[C@@H]3O[C@H]1C[C@H](N)[C@@H](O)[C@H](C)O1` [Epirubicin hydrochloride], the AC50 cell viability in the assay with HCT116 [1] came out at 0.372 µM. In addition, the efficacy in the assay with HCT116 [2] is -77.8%.

In turn, `COC(=O)[C@H]1[C@@H](O)[C@@]2(O)c3c(OC)cc(O[C@@H]4O[C@@H]([C@@H](O)CO)CO[C@H]4OC)cc3O[C@@]2(c2ccc(OC)cc2)[C@@H]1c1ccccc1` [Episilvestrol] displayed an AC50 cell viability with HCT116 [1] of 8.33 µM. The efficacy with HCT116 [2] is -54.9%.

With `C/C(=C\c1csc(C)n1)[C@@H]1C[C@@H]2O[C@]2(C)CCC[C@H](C)[C@H](O)[C@@H](C)C(=O)C(C)(C)[C@@H](O)CC(=O)O1` [Epothilone B], the AC50 cell viability with HCT116 [1] is 0.00662 µM. Further, in the assay on HCT116 [2], the efficacy is -49.2%.

`C/C1=C/C[C@@H](/C(C)=C/c2csc(C)n2)OC(=O)C[C@H](O)C(C)(C)C(=O)[C@H](C)[C@@H](O)[C@@H](C)CCC1` [Epothilone D] showed an AC50 cell viability with HCT116 [1] of 0.0166 µM. Further, the efficacy in the assay with HCT116 [2] was -60.3%.

Take `CCOC1=CC=CC=C1N\2C(=O)C3=C(C=CC=C3)\N=C2C(C)N4CCN(CC4)C(=O)COC5=CC=C(Cl)C=C5` (stereo unspecified) [Erastin]: in the assay with HCT116 [1], the AC50 cell viability was 3.32 µM. For the same compound, the efficacy in the assay with HCT116 [2] is -70.4%.

In turn, `COc1cc(OC)cc(N(CCNC(C)C)c2ccc3ncc(-c4cnn(C)c4)nc3c2)c1` [Erdafitinib] showed an AC50 cell viability in the assay on HCT116 [1] of 13.2 µM. The efficacy with HCT116 [2] is -123%.

Regarding `C=C1C[C@@H]2CC[C@@]34C[C@H]5O[C@H]6[C@@H](O3)[C@H]3O[C@H](CC[C@@H]3O[C@H]6[C@H]5O4)CC(=O)C[C@@H]3[C@@H](OC)[C@@H](C[C@H](O)CN)O[C@H]3C[C@H]3O[C@@H](CC[C@@H]1O2)C[C@@H](C)C3=C` [Eribulin mesylate], in the assay on HCT116 [1], the AC50 cell viability turned out to be 0.00241 µM. In the assay with HCT116 [2], the efficacy is -56.4%.
